We go through 22 compounds from patent US9878986B2, “Compounds for selective histone deacetylase inhibitors, and pharmaceutical composition comprising the same” (CHONG KUN DANG PHARMACEUTICAL CORP., priority 2013, dated 2018).

Molecules are shown by their SMILES.

In one experiment the target is T1, HDAC 6 (Homo sapiens, UniProt Q9UBN7).
T1 sequence (Q9UBN7 1-1215): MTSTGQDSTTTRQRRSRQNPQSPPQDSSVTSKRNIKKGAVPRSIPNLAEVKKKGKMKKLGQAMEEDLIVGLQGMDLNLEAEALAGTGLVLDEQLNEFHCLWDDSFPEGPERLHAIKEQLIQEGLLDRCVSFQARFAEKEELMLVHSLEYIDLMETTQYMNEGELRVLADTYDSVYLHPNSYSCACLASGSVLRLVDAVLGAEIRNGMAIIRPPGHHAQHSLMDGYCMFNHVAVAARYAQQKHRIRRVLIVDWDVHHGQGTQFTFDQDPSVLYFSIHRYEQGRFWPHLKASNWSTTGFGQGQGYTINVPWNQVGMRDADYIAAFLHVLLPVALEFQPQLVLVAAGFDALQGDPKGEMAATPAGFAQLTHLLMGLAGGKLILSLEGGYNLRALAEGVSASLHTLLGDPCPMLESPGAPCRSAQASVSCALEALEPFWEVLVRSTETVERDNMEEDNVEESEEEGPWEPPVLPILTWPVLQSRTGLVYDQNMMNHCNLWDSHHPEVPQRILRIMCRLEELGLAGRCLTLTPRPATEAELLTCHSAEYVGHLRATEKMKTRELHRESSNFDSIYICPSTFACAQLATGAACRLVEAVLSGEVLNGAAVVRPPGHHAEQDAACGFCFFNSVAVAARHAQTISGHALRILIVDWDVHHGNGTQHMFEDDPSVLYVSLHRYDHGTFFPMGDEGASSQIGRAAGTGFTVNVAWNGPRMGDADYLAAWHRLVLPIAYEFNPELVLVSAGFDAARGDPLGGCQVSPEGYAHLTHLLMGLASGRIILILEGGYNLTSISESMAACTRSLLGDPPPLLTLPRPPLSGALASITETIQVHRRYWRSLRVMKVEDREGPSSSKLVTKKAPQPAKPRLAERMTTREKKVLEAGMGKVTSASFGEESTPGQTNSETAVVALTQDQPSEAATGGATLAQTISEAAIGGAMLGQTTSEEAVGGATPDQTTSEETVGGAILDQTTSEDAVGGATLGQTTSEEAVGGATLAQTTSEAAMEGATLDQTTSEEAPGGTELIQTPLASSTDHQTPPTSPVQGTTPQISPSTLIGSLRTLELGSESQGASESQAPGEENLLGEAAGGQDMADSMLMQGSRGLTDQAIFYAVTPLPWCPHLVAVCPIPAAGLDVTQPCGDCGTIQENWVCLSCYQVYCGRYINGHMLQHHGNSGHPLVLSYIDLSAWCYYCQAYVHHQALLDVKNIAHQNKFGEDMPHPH
The experiment is described as follows: Test of HDAC activities, HDAC6 (fluorimetric). It is filed as biochemical. Details: purchased Calbiochem 382180. To be noted: samples at 0.1, 1, 10, 100, 1000 nM; 37° C. 60 minutes; fluorescence Ex 390, Em 460; read-out: HDAC inhibitory activities, HDAC6. On the procedure: (§1) The HDAC inhibitory activities of test materials were measured using the HDAC1 Fluorimetric Drug Discovery Assay Kit (Enzolifesciences: BML-AK511) and HDAC6 human recombinant (Calbiochem: 382180). In the HDAC1 assay, the samples were treated with concentrations of 100, 1000, and 10000 nM, and in the HDAC6 assay, the samples were treated with concentrations of 0.1, 1, 10, 100, and 1000 nM. After the treatment of the samples, the samples were reacted at 37° C. for 60 minutes, treated with a developer, and then reacted at 37° C. for 30 minutes. Then, the fluorescence intensity (Ex 390, Em 460) was measured using the FlexStation 3 (Molecular device).

In another experiment the target is HDAC1 (Homo sapiens, UniProt Q13547). The experiment is described as follows: Test of HDAC activities, HDAC1 Fluorimetric Drug Discovery Assay Kit. It is filed as biochemical. Also on record: purchased Enzolifesciences BML-AK511. To be noted: samples at 100, 1000, 10000 nM; 37° C. 60 minutes; fluorescence Ex 390, Em 460; read-out: HDAC inhibitory activities, HDAC1. Here is the method:
as §1

HDAC1, sequence (Q13547 whole entry): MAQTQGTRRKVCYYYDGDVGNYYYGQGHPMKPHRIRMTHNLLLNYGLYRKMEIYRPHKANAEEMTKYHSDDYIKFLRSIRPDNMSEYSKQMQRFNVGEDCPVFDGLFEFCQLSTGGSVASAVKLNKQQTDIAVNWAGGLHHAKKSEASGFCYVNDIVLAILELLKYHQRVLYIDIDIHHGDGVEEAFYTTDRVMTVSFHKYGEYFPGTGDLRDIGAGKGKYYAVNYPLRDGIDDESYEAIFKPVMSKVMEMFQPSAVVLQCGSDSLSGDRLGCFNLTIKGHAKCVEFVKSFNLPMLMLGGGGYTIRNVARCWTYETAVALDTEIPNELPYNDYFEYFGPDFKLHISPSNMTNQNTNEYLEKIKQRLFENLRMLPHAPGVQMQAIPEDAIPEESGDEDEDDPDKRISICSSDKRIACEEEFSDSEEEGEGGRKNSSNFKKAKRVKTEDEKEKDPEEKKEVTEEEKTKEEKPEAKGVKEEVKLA

For `CN1CCN(C(=O)N(Cc2ccc(C(=O)NO)cc2)c2ccc(F)cc2F)CC1` [Compound 416, N-(2,4-difluorophenyl)-N-(4-(hydroxycarbamoyl)benzyl)-4-methylpiperazine-1-carboxamide], the IC50 at HDAC 6 was 2 nM; on HDAC1 it was 930 nM.

Regarding `O=C(NO)c1ccc(CN(C(=O)N2CCOCC2)c2cccc(-c3ccc4c(c3)OCO4)c2)cc1` [Compound 418, N-(3-(benzo[d][1,3]dioxol-5-yl)phenyl)-N-(4-(hydroxycarbamoyl)benzyl)morpholine-4-carboxamide], the IC50 was 2 nM on HDAC 6 and 190 nM on HDAC1.

`CC(=O)N1CC=C(c2cccc(N(Cc3ccc(C(=O)NO)cc3)C(=O)N3CCOCC3)c2)CC1` [Compound 419, N-(3-(1-acetyl-1,2,3,6-tetrahydropyridin-4-yl)phenyl)-N-(4-(hydroxycarbamoyl)benzyl) morpholine-4-carboxamide]: the results for the IC50 on HDAC 6 and on HDAC1 were 5 nM and 460 nM, respectively.

For `CS(=O)(=O)N1CC=C(c2cccc(N(Cc3ccc(C(=O)NO)cc3)C(=O)N3CCOCC3)c2)CC1` [Compound 420, N-(4-(hydroxycarbamoyl)benzyl)-N-(3-(1-(methylsulfonyl)-1,2,3,6-tetrahydropyridin-4-yl)phenyl)morpholine-4-carboxamide], the IC50 on HDAC 6 came to 4 nM; on HDAC1, 310 nM.

As for `Cc1ccc(N(Cc2ccc(C(=O)NO)cc2)C(=O)N2CCCCC2)c(F)c1` [Compound 438, N-(2-fluoro-4-methylphenyl)-N-(4-(hydroxycarbamoyl)benzyl)piperidine-1-carboxamide], the values for the IC50 on HDAC 6 and on HDAC1 were 4 nM and 1740 nM, respectively.

With `Cc1ccc(N(Cc2ccc(C(=O)NO)cc2)C(=O)N2CCOCC2)c(F)c1` [Compound 439, N-(2-fluoro-4-methylphenyl)-N-(4-(hydroxycarbamoyl)benzyl)morpholine-4-carboxamide], the figures for the IC50 at HDAC 6 and at HDAC1 were 2 nM and 632 nM, respectively.

Take `Cc1ccc(N(Cc2ccc(C(=O)NO)cc2)C(=O)N2CC(C)OC(C)C2)c(F)c1` (centres unmarked) [Compound 440, N-(2-fluoro-4-methylphenyl)-N-(4-(hydroxycarbamoyl)benzyl)-2,6-dimethylmorpholine-4-carboxamide]: the IC50 was 2 nM on HDAC 6 and 988 nM at HDAC1.

For the compound `Cc1ccc(N(Cc2ccc(C(=O)NO)cc2)C(=O)N2CCN(C)CC2)c(F)c1` [Compound 441, N-(2-fluoro-4-methylphenyl)-N-(4-(hydroxycarbamoyl)benzyl)-4-methylpiperazine-1-carboxamide], the IC50 worked out at 2 nM at HDAC 6 and 447 nM at HDAC1.

Take `CC(=O)N1CCCN(C(=O)N(Cc2ccc(C(=O)NO)cc2)c2ccccn2)CC1` [Compound 450, 4-acetyl-N-(4-(hydroxycarbamoyl)benzyl)-N-(pyridin-2-yl)-1,4-diazepane-1-carboxamide]: the figures for the IC50 at HDAC 6 and on HDAC1 were 5 nM and 6400 nM, respectively.

On to `O=C(NO)c1ccc(CN(C(=O)N2CCN(C(=O)C3CC3)CC2)c2ccccn2)cc1` [Compound 451, 4-(cyclopropanecarbonyl)-N-(4-(hydroxycarbamoyl)benzyl)-N-(pyridin-2-yl)piperazine-1-carboxamide], for which the figures for the IC50 on HDAC 6 and at HDAC1 were 5 nM and 4810 nM, respectively.

Turning to `CCN1CCN(C(=O)N(Cc2ccc(C(=O)NO)cc2)c2ccc(C)cc2F)CC1` [Compound 453, 4-ethyl-N-(2-fluoro-4-methylphenyl)-N-(4-(hydroxycarbamoyl)benzyl)piperazine-1-carboxamide], the IC50 on HDAC 6 turned out to be 3 nM; on HDAC1, 604 nM.

Take `COc1ccccc1N1CCN(C(=O)N(Cc2ccc(C(=O)NO)cc2)c2ccc(C)cc2F)CC1` [Compound 454, N-(2-fluoro-4-methylphenyl)-N-(4-(hydroxycarbamoyl)benzyl)-4-(2-methoxyphenyl)piperazine-1-carboxamide]: the IC50 worked out at 5 nM on HDAC 6 and 1320 nM at HDAC1.

`Cc1ccc(N(Cc2ccc(C(=O)NO)cc2)C(=O)N2CCN(c3ccc(F)cc3)CC2)c(F)c1` [Compound 455, N-(2-fluoro-4-methylphenyl)-4-(4-fluorophenyl)-N-(4-(hydroxycarbamoyl)benzyl)piperazine-1-carboxamide]: the IC50 was found to be 6 nM at HDAC 6 and 1980 nM on HDAC1.

With `O=C(NO)c1ccc(CN(C(=O)N2CCCCC2)c2ccc(F)c(Cl)c2)cc1` [Compound 456, N-(3-chloro-4-fluorophenyl)-N-(4-(hydroxycarbamoyl)benzyl)piperidine-1-carboxamide], the results for the IC50 on HDAC 6 and at HDAC1 were 3 nM and 1270 nM, respectively.

For `CC1CCN(C(=O)N(Cc2ccc(C(=O)NO)cc2)c2ccc(F)c(Cl)c2)CC1` [Compound 457, N-(3-chloro-4-fluorophenyl)-N-(4-(hydroxycarbamoyl)benzyl)-4-methylpiperidine-1-carboxamide], the IC50 at HDAC 6 was 5 nM; at HDAC1, 3360 nM.

`O=C(NO)c1ccc(CN(C(=O)N2CCOCC2)c2ccc(F)c(Cl)c2)cc1` [Compound 458, N-(3-chloro-4-fluorophenyl)-N-(4-(hydroxycarbamoyl)benzyl)morpholine-4-carboxamide]: the IC50 on HDAC 6 was 1 nM; on HDAC1, 474 nM.

On to `CC1CCN(C(=O)N(Cc2ccc(C(=O)NO)cc2)c2cccc(C(F)(F)F)c2)CC1` [Compound 459, N-(4-(hydroxycarbamoyl)benzyl)-4-methyl-N-(3-(trifluoromethyl)phenyl)piperidine-1-carboxamide], for which the IC50 on HDAC 6 came out at 14 nM; on HDAC1, 7350 nM.

Turning to `O=C(NO)c1ccc(CN(C(=O)N2CCCCC2)c2cccc(C(F)(F)F)c2)cc1` [Compound 460, N-(4-(hydroxycarbamoyl)benzyl)-N-(3-(trifluoromethyl)phenyl)piperidine-1-carboxamide], the figures for the IC50 on HDAC 6 and at HDAC1 were 3 nM and 2370 nM, respectively.

Turning to `O=C(NO)c1ccc(CN(C(=O)N2CCCCC2)c2cccc(-c3ccc4c(c3)OCO4)c2)cc1` [Compound 462, N-(3-(benzo[d][1,3]dioxol-5-yl)phenyl)-N-(4-(hydroxycarbamoyl)benzyl)piperidine-1-carboxamide], the results for the IC50 at HDAC 6 and at HDAC1 were 14 nM and 1930 nM, respectively.

With `O=C(NO)c1ccc(CN(C(=O)N2CCC(O)CC2)c2cccc(-c3ccc4c(c3)OCO4)c2)cc1` [Compound 463, N-(3-(benzo[d][1,3]dioxol-5-yl)phenyl)-4-hydroxy-N-(4-(hydroxycarbamoyl)benzyl)piperidine-1-carboxamide], the IC50 came out at 3 nM at HDAC 6 and 284 nM at HDAC1.

`CC1CN(C(=O)N(Cc2ccc(C(=O)NO)cc2)c2cccc(-c3ccc4c(c3)OCO4)c2)CC(C)O1` (centres unmarked) [Compound 464, N-(3-(benzo[d][1,3]dioxol-5-yl)phenyl)-N-(4-(hydroxycarbamoyl)benzyl)-2,6-dimethylmorpholine-4-carboxamide]: the IC50 amounted to 10 nM on HDAC 6 and 1170 nM on HDAC1.

In the case of `O=C(NO)c1ccc(CN(C(=O)N2CCC(O)(c3ccccc3)CC2)c2cccc(-c3ccc4c(c3)OCO4)c2)cc1` [Compound 465, N-(3-(benzo[d][1,3]dioxol-5-yl)phenyl)-4-hydroxy-N-(4-(hydroxycarbamoyl)benzyl)-4-phenylpiperidine-1-carboxamide], the IC50 came out at 9 nM at HDAC 6 and 2280 nM on HDAC1.
